Earlier results in patent US8334001B2, “Composition comprising mucilaginous polysaccharides derived from aloe barbadensis and method for obtaining same and use thereof” (Pharmabrand S.A., priority 2007, dated 2012).
Where two headings read alike, the source gives them in different places.

Substance	activation of the necrosis factor, kappa B (necrosis factor, kappa B; concentration of 200 μg/ml)	activation of the necrosis factor, kappa B (necrosis factor, kappa B; concentrations of only 0.015% of the aloeride)	effect on TNF-alfa (TNF-alfa)
acemannan	produces an activation		
aloeride		the effect is shown	increases
